Measurements from US10105357B2, “Indication of antibiotic drugs for preparation of cancer inhibition pharmaceutical composition” (LAUNX BIOMEDICAL CO., LTD., priority 2014, dated 2018).
Where a name gives a salt, the structure may show the parent alone. Read-outs that look alike come from different tables or passages of the source.

How the values were obtained:
Format in all cases: cell-based, human
[1] = system: TSGH-8301 (Urinary Bladder Carcinoma); experiment: Cell viability analysis, bladder cancer TSGH-8301; conditions: for viability at 10 µM: Homo sapiens
[2] = system: A549 (Lung Adenocarcinoma); experiment: Cell viability analysis, lung cancer A549; conditions: for viability at 10 µM: Homo sapiens
[3] = system: HL-60 (Acute Promyelocytic Leukemia); experiment: Cell viability analysis, leukemia HL-60; conditions: for viability at 10 µM: Homo sapiens
[4] = system: HI650 (Lung Adenocarcinoma); experiment: Cell viability analysis, lung cancer HI650; conditions: for viability at 10 µM: Homo sapiens
[5] = system: AGS (Gastric Adenocarcinoma); experiment: Cell viability analysis, gastric cancer AGS; conditions: for viability at 10 µM: Homo sapiens
cancer cell lines = experiment: Cell viability analysis (WST-1) on cancer cell lines; conditions: drug 10 μM, 72 hours, WST-1; Table 3
[6] = system: LoVo (Colorectal Adenocarcinoma); experiment: Cell viability analysis, colon cancer LoVo; conditions: Homo sapiens, LoVo, 72 h, read-out: cell viability (survival rate), LoVo, drug 10 μM, 72 hours, WST-1, OD450 nm
[7] = system: PC3 (p53−) (Prostate Adenocarcinoma); experiment: Cell viability analysis, prostate cancer PC3; conditions: for viability at 10 µM: Homo sapiens
[8] = system: HepG2 (Hepatocellular Carcinoma); experiment: Cell viability analysis, hepatic cancer HepG2; conditions: for viability at 10 µM: Homo sapiens
[9] = system: MCF7 (Mammary Gland, Adenocarcinoma); experiment: Cell viability analysis, breast cancer MCF7; conditions: Homo sapiens, MCF7, 72 h
[10] = system: HeLa (Cervix Adenocarcinoma); experiment: Cell viability analysis, cervical cancer HeLa; conditions: Homo sapiens, HeLa
[11] = system: A375 (Amelanotic Melanoma); experiment: Cell viability analysis, skin cancer A375; conditions: for viability at 10 µM: Homo sapiens
[12] = system: MKN-45 (Gastric Adenocarcinoma); experiment: Cell viability analysis, gastric cancer MKN-45; conditions: for viability at 10 µM: Homo sapiens
[13] = 72 h, read-out: cell viability (survival rate), TSGH, drug 10 μM, 72 hours, WST-1, OD450 nm
[14] = A549, 72 h, read-out: cell viability (survival rate), A549, drug 10 μM, 72 hours, WST-1, OD450 nm
[15] = HL-60, 72 h, read-out: cell viability (survival rate), HL-60, drug 10 μM, 72 hours, WST-1, OD450 nm
[16] = NCI-H1650, 72 h, read-out: cell viability (survival rate), H1650, drug 10 μM, 72 hours, WST-1, OD450 nm
[17] = 72 h, read-out: cell viability (survival rate), AGS, drug 10 μM, 72 hours, WST-1, OD450 nm
[18] = 72 h, read-out: cell viability (survival rate), PC3, drug 10 μM, 72 hours, WST-1, OD450 nm
[19] = HepG2, 72 h, read-out: cell viability (survival rate), HepG2, drug 10 μM, 72 hours, WST-1, OD450 nm
[20] = read-out: cell viability (survival rate), MCF7, drug 10 μM, 72 hours, WST-1, OD450 nm
[21] = MKN-45, 72 h, read-out: cell viability (survival rate), MKN-45, drug 10 μM, 72 hours, WST-1, OD450 nm
[22] = A-375, 72 h, read-out: cell viability (survival rate), A375, drug 10 μM, 72 hours, WST-1, OD450 nm
[23] = 72 h, read-out: cell viability (survival rate), HeLa, drug 10 μM, 72 hours, WST-1, OD450 nm
[24] = drug 10 μM, 72 hours, WST-1, OD450 nm

Compound | inhibition effect on different cancer cell lines (cancer cell lines) | viability at 10 µM [6] [%] | viability at 10 µM [1, 13] [%] | viability at 10 µM [2, 14] [%] | viability at 10 µM [3, 15] [%] | viability at 10 µM [4, 16] [%] | viability at 10 µM [5, 17] [%] | viability at 10 µM [7, 18] [%] | viability at 10 µM [8, 19] [%] | viability at 10 µM [9, 20] [%] | viability at 10 µM [12, 21] [%] | viability at 10 µM [11, 22] [%] | viability at 10 µM [10, 23] [%] | further results
Cc1cc(-n2c(=O)[nH]c(=O)n(C)c2=O)ccc1Oc1ccc(SC(F)(F)F)cc1 [toltrazuril] | significant inhibition effect | 61.9 | – | – | – | – | – | – | – | – | – | – | – | viability at 10 µM ([1]; 72 h, drug 10 μM, 72 hours, WST-1, OD450 nm, read-out: cell viability (survival rate), TSGH): 34.8%; viability at 10 µM ([2]; A549, 72 h, drug 10 μM, 72 hours, WST-1, OD450 nm, read-out: cell viability (survival rate), A549): 61.2%; viability at 10 µM ([3]; HL-60, 72 h, drug 10 μM, 72 hours, WST-1, OD450 nm, read-out: cell viability (survival rate), HL-60): 73.1%; viability at 10 µM ([4]; NCI-H1650, 72 h, drug 10 μM, 72 hours, WST-1, OD450 nm, read-out: cell viability (survival rate), H1650): 70.9%; viability at 10 µM ([5]; 72 h, drug 10 μM, 72 hours, WST-1, OD450 nm, read-out: cell viability (survival rate), AGS): 26.3%; viability at 10 µM ([7]; 72 h, drug 10 μM, 72 hours, WST-1, OD450 nm, read-out: cell viability (survival rate), PC3): 30.3%; viability at 10 µM ([8]; HepG2, 72 h, drug 10 μM, 72 hours, WST-1, OD450 nm, read-out: cell viability (survival rate), HepG2): 62.2%; viability at 10 µM ([9]; drug 10 μM, 72 hours, WST-1, OD450 nm, read-out: cell viability (survival rate), MCF7): 67.4%; viability at 10 µM ([10]; 72 h, drug 10 μM, 72 hours, WST-1, OD450 nm, read-out: cell viability (survival rate), HeLa): 70.1%; viability at 10 µM ([11]; A-375, 72 h, drug 10 μM, 72 hours, WST-1, OD450 nm, read-out: cell viability (survival rate), A375): 27.7%
O=c1[nH]c(=O)n([C@H]2C[C@H](O)[C@@H](CO)O2)cc1I [Idoxuridine] | significant inhibition effect | 72.7 | 88 | 58.5 | 96.1 | 82.8 | 68.7 | 57.8 | 122 | 47.3 | 80.8 | 81.5 | – | –
CN1[C@@H]2CC[C@H]1C[C@@H](OC(c1ccccc1)c1ccccc1)C2 [Benztropine mesylate] | significant inhibition effect | 81.4 | – | 68.2 | 81.1 | 91.7 | 83 | 75.3 | 86 | 63.3 | 89.4 | 67.5 | 95.3 | –
Caspofungin acetate | significant inhibition effect | – | – | – | – | – | – | – | – | – | – | – | – | cell viability (survival rate), TSGH [1, 24]: 123.7; cell viability (survival rate), A549 [2, 24]: 78.4; cell viability (survival rate), HL-60 [3, 24]: 124.4; cell viability (survival rate), H1650 [4, 24]: 37.1; cell viability (survival rate), AGS [5, 24]: 94.2; cell viability (survival rate), PC3 [7, 24]: 59.4; cell viability (survival rate), HepG2 [8, 24]: 95.3; cell viability (survival rate), MKN-45 [12, 24]: 36.4; cell viability (survival rate), A375 [11, 24]: 70.5
CC(C)(C)C(=O)C(Oc1ccc(Cl)cc1)n1ccnc1 (stereo not drawn) [Climbazole] | significant inhibition effect | – | – | – | – | – | – | – | – | – | – | – | – | viability at 10 µM ([1]; drug 10 μM, 72 hours, WST-1, OD450 nm, read-out: cell viability (survival rate), TSGH): 102%; viability at 10 µM ([2]; A549, drug 10 μM, 72 hours, WST-1, OD450 nm, read-out: cell viability (survival rate), A549): 72.7%; viability at 10 µM ([3]; HL-60, drug 10 μM, 72 hours, WST-1, OD450 nm, read-out: cell viability (survival rate), HL-60): 111%; viability at 10 µM ([4]; NCI-H1650, drug 10 μM, 72 hours, WST-1, OD450 nm, read-out: cell viability (survival rate), H1650): 84.2%; viability at 10 µM ([5]; drug 10 μM, 72 hours, WST-1, OD450 nm, read-out: cell viability (survival rate), AGS): 93.3%; viability at 10 µM ([7]; drug 10 μM, 72 hours, WST-1, OD450 nm, read-out: cell viability (survival rate), PC3): 99.6%; viability at 10 µM ([8]; HepG2, drug 10 μM, 72 hours, WST-1, OD450 nm, read-out: cell viability (survival rate), HepG2): 94.4%; viability at 10 µM ([10]; drug 10 μM, 72 hours, WST-1, OD450 nm, read-out: cell viability (survival rate), HeLa): 94%; viability at 10 µM ([12]; MKN-45, drug 10 μM, 72 hours, WST-1, OD450 nm, read-out: cell viability (survival rate), MKN-45): 97.7%; viability at 10 µM ([11]; A-375, drug 10 μM, 72 hours, WST-1, OD450 nm, read-out: cell viability (survival rate), A375): 70.6%
COc1c(N2C[C@@H]3CCCN[C@@H]3C2)c(F)cc2c(=O)c(C(=O)O)cn(C3CC3)c12 [Moxifloxacin hydrochloride] | significant inhibition effect | 102 | 75.7 | 95.5 | 97.1 | 70.9 | 77.1 | 69.1 | – | 90.3 | 89 | 94 | 92 | –
O=C(N[C@H](CO)[C@H](O)c1ccc([N+](=O)[O-])cc1)C(Cl)Cl [Chloramphenicol (Chloromycetin), Chloramphenicol] | significant inhibition effect | – | 83.5 | 96.3 | 105 | 75.6 | 90.6 | 120 | 93.6 | 89.1 | 66.8 | 114 | 85 | –
CC[C@H]1OC(=O)[C@H](C)[C@@H](O[C@H]2C[C@@](C)(OC)[C@@H](O)[C@H](C)O2)[C@H](C)[C@@H](O[C@@H]2O[C@H](C)C[C@H](N(C)C)[C@H]2O)[C@](C)(O)C[C@@H](C)C(=O)[C@H](C)[C@@H](O)[C@]1(C)O [Erythromycin (E-Mycin), Erythromycin] | significant inhibition effect | 85.5 | 42.6 | 63.8 | 111 | 90.4 | 27.7 | 86 | 93.5 | 45.2 | 53.2 | – | 93 | –
CCN1CCN(C(=O)N[C@@H](C(=O)N[C@@H]2C(=O)N3C(C(=O)O)=C(CSc4nnnn4C)CS[C@H]23)c2ccc(O)cc2)C(=O)C1=O [Cefoperazone (Cefobid), Cefoperazone] | significant inhibition effect | 105 | 60.3 | 76.5 | 111 | 98.4 | 98.6 | 104 | – | 50.1 | 51.6 | 90 | 91.7 | –
OC(Cn1cncn1)(Cn1cncn1)c1ccc(F)cc1F [Fluconazole] | significant inhibition effect | 102 | 66.1 | 125 | 106 | 45.3 | 50.2 | 97.7 | 97.4 | – | 76.2 | 76.9 | 79.2 | –
Cc1ccnc(NS(=O)(=O)c2ccc(N)cc2)n1 [Sulfamerazine] | significant inhibition effect | 99.6 | 90 | 103 | 105 | 108 | 87.9 | 78.4 | – | 79.8 | 87.4 | 80.4 | 92.3 | –
